Tests used:
Type in all cases: cell-based
[1] = tested on: H1299 cells; assay: Trypan blue viability assay, H1299
Source text: (§1) The non-small cell lung cancer (NSCLC) cell line NCI-H1299, the breast cancer cell lines MCF7 and MDA MB 231 and the Hep3B, Hep2G and SK-Hep1 cells were obtained from the American Type Culture Collection (ATCC) (Manassas, Va., USA) and maintained as a monolayer culture in Eagle's minimum essential medium (MEM, Invitrogen, Gaithersburg, Md., USA) supplemented with 10% fetal bovine serum at 37 C and 5% CO2. All treatments were done in triplicate samples on 96-well plates. VX2 cells were maintained as described in Geschwind et al., Cancer Res., 62:3909-3913 (2002).
The efficacy of 3-BrPA in the treatment of lung cancer cells was tested using the non-small cell lung cancer (NSCLC) cell line NCI-H1299. As described above, the cell line was grown as a monolayer in MEM (Invitrogen) supplemented with 10% fetal bovine serum (HyClone) at 37 C.° and 5% CO2, and all treatments were done in triplicate samples on 96-well plates.
The EC50 of 3-BrPA for H1299 cells lies between 0.08 and 0.09 mM. […] Therefore, considering that oral administration of 3-BrPA buffered in NaHCO3 is effective in prolonging survival in liver cancer models (Example 2), it is probable that oral administration of 3-BrPA buffered in NaHCO3 would also be effective in the treatment of lung cancer.

[2] = tested on: MDA MB 231 cells; assay: Luminescence ATP assay, MDA MB 231
Protocol: (§2) Cytotoxicity of 3-BrPA was evaluated by the IC50 values, representing the drug concentration which depletes ATP by 50% compared to non-treated control. On day 1, cells were seeded into 96-well plates in a volume of 100 μl per well. On day 2, the medium of all wells was removed and an aliquot of 100 μl of media having serial dilutions of 3-BrPA in PBS, NaHCO3, NaOH, KOH and KHCO3 was added to the appropriate well. After 24 h of drug exposure cytotoxic effects of 3-BrPA were monitored by cellular ATP level using CellTiter-Glo™ assay reagents from Promega Corp (Madison, Wis.). Briefly, 100 μl assay reagent was added to each well and mixed at room temperature for 2 min to develop luminescent signal. The luminescence intensity (cps) from each sample was determined with a spectrometer (Model Victor III, Perkin Elmer, Mass.). Relative luminescence was calculated in proportion to the numbers of living cells per sample well. The results are expressed as the mean of three independent experiments. The intracellular ATP contents were calculated and normalized by equal cell number and expressed as the percentage of the control cells. The IC50 values were estimated graphically from dose-response plots.
The anti-metabolic effect of 3-BrPA on MCF7 and MDA MB231 cells was examined using luminescence ATP assays, as described above. […]

[3] = ATP luminescent assay of 3-BrPA dissolved in alternative buffers
Protocol: as §2
Based on the results described in Example 1, it was concluded that 10 mg of 3-BrPA is the maximum tolerated dose (MTD) if dissolved in 2.75 ml of PBS. […]

[4] = tested on: genomic DNA; assay: 14C-3-BrPA incorporation into genomic DNA (scintillation counting); settings: SK-Hep and Hep3B cells exposed to 14C-3-BrPA
Protocol: Many antineoplastic chemotherapeutics are alkylating agents that exert their effect by binding to DNA and interfering with cell replication. […] Since 3-BrPA has been reported to be an alkylating agent, it was determined whether 3-BrPA is incorporated into the DNA of 3-BrPA treated cells. To accomplish this, genomic DNA was isolated from SK-Hep and Hep3B cells that had been exposed to ^14C-3-BrPA.

[5] = tested on: SK-Hep 1 cells; assay: ATP dependent luminescence cell viability assay, SK-Hep1
Source text: as §1
(§3) Cytotoxicity of 3-BrPA was evaluated by the IC50 values, representing the drug concentration which depletes ATP by 50% compared to non-treated control. On day 1, cells were seeded into 96-well plates in a volume of 100 μl per well. On day 2, the medium of all wells was removed and an aliquot of 100 μl of media having serial dilutions of 3-BrPA in PBS, NaHCO3, NaOH, KOH and KHCO3 was added to the appropriate well. […] Briefly, 100 μl assay reagent was added to each well and mixed at room temperature for 2 min to develop luminescent signal. The luminescence intensity (cps) from each sample was determined with a spectrometer (Model Victor III, Perkin Elmer, Mass.). […]
(§4) The effects on cell viability and cellular metabolism of 3-BrPA on Hep3B and VX2 cells were examined using luminescence ATP assays, as described above. […]

[6] = tested on: HepG2 cells; assay: ATP dependent luminescence cell viability assay, HepG2
Source text: as §1, §3, §4

O=C(O)C(=O)CBr [3-BrPA, 3-bromopyruvate]
Cells died ([1]; 0.1 mM, within 3 hours): more than 80% | Cell death ([1]; 0.2 mM): 100% | EC50 compared with EC50 of 3-BrPA for VX2 liver cancer cells ([1]; H1299): lower | Viability (trypan blue) ([1]; H1299): dose and time dependent decrease in viability | ATP level (bioluminescent quantification) [2]: dose and time dependent energy (ATP) depletion | IC50 value compared to 3-BrPA dissolved in PBS ([3]; dissolved in NaHCO3): did not show a significantly different in IC50 value | IC50 value compared to 3-BrPA dissolved in PBS ([3]; other buffers tested (NaOH, KOH and KHCO3)): significantly higher IC50 values | 14C incorporation into genomic DNA [4]: no evidence of ^14C incorporation | Level of ATP ([5]; SK-Hep1, 3, 24, 48 hours): dose and time dependent decrease | IC50 ([5]; SK-Hep 1, at 48 hours, read-out: IC50 (ATP depletion)): 125 µM | Level of ATP ([6]; 3, 24, 48 hours): dose and time dependent decrease | IC50 ([6]; at 48 hours, read-out: IC50 (ATP depletion)): 125 µM

— US10130598B2, “Methods and compositions for administration of 3-halopyruvate and related compounds for the treatment of cancer” (The Johns Hopkins University, priority 2008, dated 2018)
